In PubChem BioAssay AID463203 (Broad Institute, 2010):
Calls of active or inactive are those of the source.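 The calls were made as follows: active = more than half of replicate measurements showing over 20% loss of kinase signal relative to plate controls; inconclusive = some but at most half of replicates over 20% loss; inactive = no replicate over 20% signal loss.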

Biological target: Glycogen synthase kinase-3 alpha (Homo sapiens) (UniProt P49840)
Experiment: concentration-response blocking of human GSK3A – biochemical, luminescence, cell-free homogeneous, retest, dose response (AID 463203)
Settings: GSK-3 alpha enzyme, ADP-Glo luminescence, 60 min

Chain of Glycogen synthase kinase-3 alpha (Homo sapiens) (P49840 whole entry, looked up): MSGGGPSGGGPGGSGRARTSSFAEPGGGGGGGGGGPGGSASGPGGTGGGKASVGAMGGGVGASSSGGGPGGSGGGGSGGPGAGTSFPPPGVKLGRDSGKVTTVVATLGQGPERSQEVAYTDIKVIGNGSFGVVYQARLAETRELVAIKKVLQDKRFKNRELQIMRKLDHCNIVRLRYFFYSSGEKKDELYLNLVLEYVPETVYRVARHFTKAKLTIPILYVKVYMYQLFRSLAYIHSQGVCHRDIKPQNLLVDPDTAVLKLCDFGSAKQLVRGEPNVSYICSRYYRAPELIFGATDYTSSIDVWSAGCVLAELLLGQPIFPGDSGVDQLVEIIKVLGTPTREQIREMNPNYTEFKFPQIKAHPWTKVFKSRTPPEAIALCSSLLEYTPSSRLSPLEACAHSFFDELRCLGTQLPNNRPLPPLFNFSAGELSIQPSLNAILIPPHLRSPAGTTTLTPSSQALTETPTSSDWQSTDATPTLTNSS

Q: For `Cc1cccc(OCC(=O)NNC(=O)c2cc3ccccc3oc2=O)c1`, which AC50 is on record?
A: > 30 µM (inactive)

Q: For `O=C(Nc1ccccc1-c1nnc(SCc2ccc(Cl)cc2Cl)o1)c1ccccc1`, which AC50 is on record?
A: > 30 µM (inactive)

Q: With `COc1cccc(C2CC(=O)N3CN(c4ccccc4F)CSC3=C2C#N)c1` (centres undefined) as the compound, how does the AC50 read?
A: > 30 µM (inactive)

Q: Which AC50 does the source give for `Cn1ccnc1SCC(=O)Nc1ccc(Cl)cn1` here?
A: 23.1 µM

Q: With `CC(C)=CC(=O)NCc1c(Cl)cccc1-n1cccc1` as the compound, how does the AC50 read?
A: > 30 µM (inactive)

Q: How did the AC50 turn out when `O=C(O)c1cccc2c1C(=O)c1ccc(Cl)cc1S2(=O)=O` was run?
A: > 30 µM (inactive)

Q: With `CN1/C(=C/C=C(C#N)C#N)C(C)(C)c2ccccc21` as the compound, how does the AC50 read?
A: > 30 µM (inactive)

Q: With `O=C1N=C(C=c2ccc(=Cc3[nH]c(=O)[nH]c3O)cc2)C(=O)N1` as the compound, how does the AC50 read?
A: 15.5 µM

Q: How did the AC50 turn out when `CCOC(=O)c1cnc2c(Cl)c(Cl)ccc2c1N1CCN(C)CC1` was run?
A: > 30 µM (inactive)

Q: Which AC50 does the source give for `COc1ccc(-c2nc(N)ncc2-c2ccc(OC)c(OC)c2)c(O)c1` here?
A: 29.2 µM

Q: How did the AC50 turn out when `CCOC(=O)c1oc2ccc3c(c2c1C)C(=O)CC1(CCN(C(=O)OCC)CC1)O3` was run?
A: > 30 µM (inactive)

Q: How did the AC50 turn out when `CCCNC(=O)Cn1c(-c2ccc(F)cc2)cc(C(=O)OCC)c1C` was run?
A: > 30 µM (inactive)

Q: With `Cc1nc(SCC(=O)Nc2ccccc2C(F)(F)F)c(C#N)c(C)c1CC(=O)c1ccc(Br)cc1` as the compound, how does the AC50 read?
A: > 30 µM (inactive)

Q: `COc1ccccc1N1CCN(CCC(=O)Nc2cccc(Cl)c2)CC1` was tested. Which AC50 did it give?
A: 19.3 µM

Q: Which AC50 does the source give for `CCCC(=O)Nc1cc(-c2cn3cccnc3n2)ccc1OC` here?
A: > 30 µM (inactive)

Q: For `CC(NC(=O)COc1ccccc1F)C1CC2CCC1C2` (centres undefined), which AC50 is on record?
A: > 30 µM (inactive)

Q: `O=C(COC(=O)C1CCC1)c1c[nH]c2ccccc12` was tested. Which AC50 did it give?
A: > 30 µM (inactive)

Q: How did the AC50 turn out when `Cc1cccc(NC(=O)CSCc2nc3c(nnn3Cc3ccc(F)cc3)c(=O)[nH]2)c1C` was run?
A: > 30 µM (inactive)

Q: For `COc1cc(/C=N/n2nnnc2N)ccc1OCC#N`, which AC50 is on record?
A: > 30 µM (inactive)

Q: For `Cc1sc2ncnc(N3CCC(C(=O)Nc4ccc(C#N)cc4)CC3)c2c1C`, which AC50 is on record?
A: > 30 µM (inactive)

Q: `O=C(O)c1ccc(Nc2nc(-c3cccnc3)nc3ccccc23)cc1` was tested. Which AC50 did it give?
A: 9.3 µM

Q: `O=C(NCCCN1CCCC1)c1cc2c(Cl)nc3ccccc3c2s1` was tested. Which AC50 did it give?
A: > 30 µM (inactive)

Q: With `Cc1ccc(-c2nnc3n2N=C(c2ccc(Br)cc2)CS3)cc1` as the compound, how does the AC50 read?
A: > 30 µM (inactive)

Q: With `COc1cccc(C2C(C(=O)OC(C)C)=C(C)Nc3ncnn32)c1` (centres undefined) as the compound, how does the AC50 read?
A: 15.2 µM

Q: `Cc1cccc(C(=O)Nc2cccc(C(=O)N/N=C/c3ccccn3)c2)c1` was tested. Which AC50 did it give?
A: 23.3 µM

Q: `COc1cccc(/C=N/n2cncn2)c1OCC#N` was tested. Which AC50 did it give?
A: > 30 µM (inactive)

Q: With `CSc1cccc(NC(=O)CN(C)S(=O)(=O)c2cnc[nH]2)c1` as the compound, how does the AC50 read?
A: > 30 µM (inactive)

Q: `Cc1noc(C)c1COc1ccc(C(=O)OCC(=O)Nc2c(C)n(C)n(-c3ccccc3)c2=O)cc1` was tested. Which AC50 did it give?
A: > 30 µM (inactive)

Q: `C[C@H](CO)N1C[C@H](C)[C@@H](CN(C)S(=O)(=O)c2cccs2)Oc2c(NS(=O)(=O)c3ccc(F)cc3)cccc2C1=O` was tested. Which AC50 did it give?
A: > 30 µM (inactive)
